From patent US9695155B2, “Herbicidal substituted pyrimidinyloxy benzene compounds” (E. I. DU PONT DE NEMOURS AND COMPANY, priority 2013, dated 2017)

Experiments:
kochia [1] = assay: Test A preemergence; type: in vivo, Kochia scoparia; details: 0 to 100 scale where 0 is no effect and 100 is complete control
Procedure, shortened: (§1)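 Scoring: eye-based comparison with untreated controls, 0 for no effect through 100 for complete control, at about day 10. Treatments: directed soil spray preemergence; foliar spray postemergence on 2–10 cm plants at the one- to two-leaf stage. Medium: loam soil with sand.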

kochia [2] = assay: Test A postemergence; type: in vivo, Kochia scoparia; details: for Kochia plant response rating: 125 g ai/ha
Procedure, shortened: as §1

ragweed = assay: Test A postemergence; type: in vivo, Ambrosia elatior; details: for Ragweed plant response rating: 125 g ai/ha
Procedure, shortened: as §1

galium = assay: Test A postemergence; type: in vivo, Galium aparine; details: for Galium plant response rating: 125 g ai/ha
Procedure, shortened: as §1

corn = assay: Test E preemergence; type: in vivo, Zea mays; details: for Corn plant response rating: scale 0 to 100 (0 no effect, 100 complete control); for Plant response rating, Corn: 125 g ai/ha, scale 0 to 100, 0 no effect, 100 complete control
Procedure, shortened: (§2)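 Test chemicals formulated in a non-phytotoxic solvent mixture containing a surfactant were applied preemergence to seeds in silt loam soil or postemergence to plants at the 1- to 4-leaf stage in potting mix. After 14 to 21 days in a greenhouse, injury was visually rated against controls on a 0-100 scale (0 = no effect, 100 = complete control).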

waterhemp = assay: Test E preemergence; type: in vivo, Amaranthus rudis; details: for Waterhemp plant response rating: scale 0 to 100 (0 no effect, 100 complete control); for Plant response rating, Waterhemp: 125 g ai/ha, scale 0 to 100, 0 no effect, 100 complete control
Procedure, shortened: as §2

giant foxtail = assay: Test E preemergence; type: in vivo, Setaria faberii; details: for Foxtail, Giant plant response rating: scale 0 to 100 (0 no effect, 100 complete control); for Plant response rating, Foxtail, Giant: 125 g ai/ha, scale 0 to 100, 0 no effect, 100 complete control
Procedure, shortened: as §2

goosegrass = assay: Test E preemergence; type: in vivo, Eleusine indica; details: for Goosegrass plant response rating: scale 0 to 100 (0 no effect, 100 complete control); for Plant response rating, Goosegrass: 125 g ai/ha, scale 0 to 100, 0 no effect, 100 complete control
Procedure, shortened: as §2

johnsongrass = assay: Test E preemergence; type: in vivo, Sorghum halepense; details: for Johnsongrass plant response rating: scale 0 to 100 (0 no effect, 100 complete control); for Plant response rating, Johnsongrass: 125 g ai/ha, scale 0 to 100, 0 no effect, 100 complete control
Procedure, shortened: as §2

Italian ryegrass = assay: Test E preemergence; type: in vivo, Lolium multiflorum; details: for Ryegrass, Italian plant response rating: scale 0 to 100 (0 no effect, 100 complete control); for Plant response rating, Ryegrass, Italian: 125 g ai/ha, scale 0 to 100, 0 no effect, 100 complete control
Procedure, shortened: as §2

field bindweed = assay: Test E preemergence; type: in vivo, Convolvulus arvensis; details: for Field Bindweed plant response rating: scale 0 to 100 (0 no effect, 100 complete control); for Plant response rating, Field Bindweed: 125 g ai/ha, scale 0 to 100, 0 no effect, 100 complete control
Procedure, shortened: as §2

morningglory = assay: Test E preemergence; type: in vivo, Ipomoea coccinea; details: for Morningglory plant response rating: scale 0 to 100 (0 no effect, 100 complete control); for Plant response rating, Morningglory: 125 g ai/ha, scale 0 to 100, 0 no effect, 100 complete control
Procedure, shortened: as §2

nightshade = assay: Test E preemergence; type: in vivo, Solanum ptycanthum; details: for Nightshade plant response rating: scale 0 to 100 (0 no effect, 100 complete control); for Plant response rating, Nightshade: 125 g ai/ha, scale 0 to 100, 0 no effect, 100 complete control
Procedure, shortened: as §2

kochia [3] = assay: Test E preemergence; type: in vivo, Kochia scoparia; details: for Kochia plant response rating: scale 0 to 100 (0 no effect, 100 complete control); for Plant response rating, Kochia: 125 g ai/ha, scale 0 to 100, 0 no effect, 100 complete control
Procedure, shortened: as §2

hairy beggarticks = assay: Test E preemergence; type: in vivo, Bidens pilosa; details: preemergence; for Beggarticks plant response rating: scale 0 to 100 (0 no effect, 100 complete control); for Plant response rating, Beggarticks: 125 g ai/ha, scale 0 to 100, 0 no effect, 100 complete control
Procedure, shortened: as §2

[4] = 31 g ai/ha, 0 to 100 scale, 0 no effect, 100 complete control
[5] = 0 to 100 scale where 0 is no effect and 100 is complete control
[6] = 500 g ai/ha, 0 to 100 scale where 0 is no effect and 100 is complete control

N#Cc1cnn(-c2c(CF)cccc2Oc2ncc(F)cn2)c1 [Compound 151]
85: Plant response rating, Goosegrass (goosegrass)
10: Plant response rating, Galium (galium; [4]) | Ryegrass, Italian plant response rating (Italian ryegrass; 31 g ai/ha) | Ryegrass, Italian plant response rating (Italian ryegrass; 62 g ai/ha)
90: Plant response rating, Kochia (kochia [1]; 125 g ai/ha) | Kochia plant response rating (kochia [2]; [5]) | Plant response rating, Nightshade (nightshade) | Kochia plant response rating (kochia [3]; 62 g ai/ha)
65: Plant response rating, Ryegrass, Italian (Italian ryegrass) | Beggarticks plant response rating (hairy beggarticks; 16 g ai/ha) | Beggarticks plant response rating (hairy beggarticks; 31 g ai/ha)
30: Nightshade plant response rating (nightshade; 31 g ai/ha)
75: Waterhemp plant response rating (waterhemp; 31 g ai/ha) | Nightshade plant response rating (nightshade; 62 g ai/ha)
0: Corn plant response rating (corn; 16 g ai/ha) | Corn plant response rating (corn; 31 g ai/ha) | Corn plant response rating (corn; 62 g ai/ha) | Plant response rating, Corn (corn) | Foxtail, Giant plant response rating (giant foxtail; 16 g ai/ha) | Goosegrass plant response rating (goosegrass; 31 g ai/ha) | Johnsongrass plant response rating (johnsongrass; 31 g ai/ha) | Field Bindweed plant response rating (field bindweed; 16 g ai/ha) | Field Bindweed plant response rating (field bindweed; 31 g ai/ha) | Morningglory plant response rating (morningglory; 31 g ai/ha) | Morningglory plant response rating (morningglory; 62 g ai/ha) | Plant response rating, Morningglory (morningglory)
25: Foxtail, Giant plant response rating (giant foxtail; 31 g ai/ha)
100: Ragweed plant response rating (ragweed; [5]) | Plant response rating, Waterhemp (waterhemp) | Plant response rating, Kochia (kochia [3]) | Plant response rating, Beggarticks (hairy beggarticks)
50: Plant response rating, Ragweed (ragweed; [4])
20: Field Bindweed plant response rating (field bindweed; 62 g ai/ha)
80: Plant response rating, Kochia (kochia [1]; 31 g ai/ha, visual, approximately 10 days) | Kochia plant response rating (kochia [3]; 31 g ai/ha)
70: Goosegrass plant response rating (goosegrass; 62 g ai/ha) | Plant response rating, Johnsongrass (johnsongrass)
98: Waterhemp plant response rating (waterhemp; 62 g ai/ha)
35: Johnsongrass plant response rating (johnsongrass; 62 g ai/ha) | Plant response rating, Field Bindweed (field bindweed)
40: Galium plant response rating (galium; [5])
95: Plant response rating, Foxtail, Giant (giant foxtail) | Beggarticks plant response rating (hairy beggarticks; 62 g ai/ha)
60: Plant response rating, Kochia (kochia [2]; [4]) | Foxtail, Giant plant response rating (giant foxtail; 62 g ai/ha)

FC(F)(F)COc1cnn(-c2ccccc2Oc2ncc(Cl)cn2)c1 [Compound 138, 5-chloro-2-[2-[4-(2,2,2-trifluoroethoxy)-1H-pyrazol-1-yl]phenoxy]pyrimidine]
70: Plant response rating, Goosegrass (goosegrass)
100: Kochia plant response rating (kochia [1]; 500 g ai/ha) | Plant response rating, Kochia (kochia [2]; [6]) | Plant response rating, Galium (galium; [6]) | Waterhemp plant response rating (waterhemp; 31 g ai/ha) | Plant response rating, Waterhemp (waterhemp) | Plant response rating, Kochia (kochia [3])
30: Ragweed plant response rating (ragweed; [5]) | Foxtail, Giant plant response rating (giant foxtail; 62 g ai/ha) | Goosegrass plant response rating (goosegrass; 31 g ai/ha)
35: Plant response rating, Corn (corn) | Johnsongrass plant response rating (johnsongrass; 62 g ai/ha)
0: Corn plant response rating (corn; 16 g ai/ha) | Corn plant response rating (corn; 31 g ai/ha) | Waterhemp plant response rating (waterhemp; 16 g ai/ha) | Foxtail, Giant plant response rating (giant foxtail; 16 g ai/ha) | Foxtail, Giant plant response rating (giant foxtail; 31 g ai/ha) | Johnsongrass plant response rating (johnsongrass; 16 g ai/ha) | Johnsongrass plant response rating (johnsongrass; 31 g ai/ha) | Ryegrass, Italian plant response rating (Italian ryegrass; 16 g ai/ha) | Ryegrass, Italian plant response rating (Italian ryegrass; 31 g ai/ha) | Ryegrass, Italian plant response rating (Italian ryegrass; 62 g ai/ha) | Field Bindweed plant response rating (field bindweed; 16 g ai/ha) | Morningglory plant response rating (morningglory; 16 g ai/ha) | Morningglory plant response rating (morningglory; 31 g ai/ha) | Morningglory plant response rating (morningglory; 62 g ai/ha) | Nightshade plant response rating (nightshade; 16 g ai/ha) | Nightshade plant response rating (nightshade; 31 g ai/ha) | Beggarticks plant response rating (hairy beggarticks; 16 g ai/ha) | Beggarticks plant response rating (hairy beggarticks; 31 g ai/ha) | Beggarticks plant response rating (hairy beggarticks; 62 g ai/ha) | Plant response rating, Beggarticks (hairy beggarticks)
60: Plant response rating, Ragweed (ragweed; [6]) | Kochia plant response rating (kochia [3]; 16 g ai/ha)
15: Corn plant response rating (corn; 62 g ai/ha)
40: Plant response rating, Johnsongrass (johnsongrass) | Field Bindweed plant response rating (field bindweed; 62 g ai/ha) | Plant response rating, Morningglory (morningglory)
98: Nightshade plant response rating (nightshade; 62 g ai/ha)
50: Goosegrass plant response rating (goosegrass; 62 g ai/ha) | Plant response rating, Field Bindweed (field bindweed)
10: Goosegrass plant response rating (goosegrass; 16 g ai/ha)
75: Plant response rating, Foxtail, Giant (giant foxtail) | Kochia plant response rating (kochia [3]; 31 g ai/ha)
90: Plant response rating, Kochia (kochia [1]; 125 g ai/ha) | Kochia plant response rating (kochia [2]; [5]) | Galium plant response rating (galium; [5]) | Waterhemp plant response rating (waterhemp; 62 g ai/ha) | Plant response rating, Nightshade (nightshade) | Kochia plant response rating (kochia [3]; 62 g ai/ha)
20: Plant response rating, Ryegrass, Italian (Italian ryegrass) | Field Bindweed plant response rating (field bindweed; 31 g ai/ha)
